# Results from patent US20090118301A1, “Compositions and Methods for Treating Cancer” (Arbor Vita Corporation, priority 2007, published 2009).
# What was measured:
# [1] = system: HeLa cells; assay: WST-1 cytotoxicity assay, HeLa; assay type: cell-based; details: 60 μM, HPV-positive cervical cancer cell line
# Description: (§1) To determine the cytotoxicity of the compound 7291-0042, drug toxicity studies were performed in HPV-positive (E6 transformed) cervical cancer cell lines SiHa and HeLa and HPV-negative cervical cancer cell line […]. […] and SiHa cells were seeded onto a 12-well plate, allowed to adhere and grown to 10,000 cells per well. HeLa cells were seeded, allowed to adhere and grown to 5,000 cells per well. 100 μl of compound 7291-0042 at a concentration of 60 μM or DMSO was added to the cells 24 hours after plating. Cytotoxicity of the cells was assessed by the WST-1 calorimetric assay. In brief, the calorimetric assay is based on the cleavage of the tetrazolium salt WST-1 to a formazan-class dye by mitochondrial succinate-tetrazolium reductase in viable cells. As the cells proliferate, more WST-1 is converted to the formazan product. The quantity of formazan dye is directly related to the number of metabolically active cells, and can be quantified by measuring the absorbance at 420-480 nm (Amax 450 nm) in a multiwell plate reader.
# [2] = system: E6 protein (HPV18-E6); assay: E6 oncoprotein expression by Western blot in HeLa cells; assay type: cell-based; details: 60-120 μM, 24 hours, vs DMSO control and untreated cells
# Description: To determine whether the compound 7291-0042 has an effect on E6 protein expression, cervical cancer cell line HeLa was used. HeLa cells were seeded, allowed to adhere and grown to 0.5×10^6 cells per well. Compound 7291-0042 at a concentration of 60 μM, 80 μM, 100 μM, 120 μM, or DMSO was added to the cells 24 hours after plating and incubated for 24 hours. Cells that were untreated served as an additional control. Western blot was performed to determine the relative amounts of the E6 protein present in the different samples. Briefly, the cells were homogenized in a lysate buffer and the protein samples were separated using SDS-PAGE and transferred to a membrane for detection. The membrane was incubated with an anti-HPV18-E6 antibody, labeled with a secondary antibody-enzyme conjugate and detected. To ensure that the amount of protein loaded for each sample was similar, the membrane was stripped and labeled with an antibody that recognizes a protein encoding a housekeeping gene. For this experiment, an antibody against glyceraldehyde-3-phosphate dehydrogenase (GAPDH) was used.
# [3] = system: C33a cells; assay: WST-1 cytotoxicity assay, C33a; assay type: cell-based; details: 60 μM, HPV-negative cervical cancer cell line
# Description: as §1
# [4] = system: p53 tumor suppressor protein; assay: p53 protein expression by immunocytochemistry in HeLa cells; assay type: cell-based; details: 80-120 μM, 24 hours, vs DMSO control
# Description: To determine whether the compound 7291-0042 has an effect on p53 protein expression, cervical cancer cell line HeLa was used. HeLa cells were seeded, allowed to adhere and grown to 0.5×10^6 cells per well. 1 ml of compound 7291-0042 at a concentration of 80 μM, 100 μM, 120 μM, or DMSO was added to the cells 24 hours after plating and incubated for 24 hours. Immunocytochemistry with anti-p53 monoclonal antibody was performed to determine the relative amounts of the p53 protein present in the different cell samples.
# [5] = molecular target: T1, MAGI-1 PDZ domain 1 (interaction with HPV E6 protein) (Homo sapiens, UniProt Q96QZ7); assay: matrix/array PDZ/PL competition assay, titration, Magi1 d1; assay type: binding; details: compared with the other PDZ domains and compounds of Table 1
# T1 construct: MAGI-1 PDZ domain 1 was used as a target for rational drug design
# T1 sequence (Q96QZ7 472-554 limits assumed): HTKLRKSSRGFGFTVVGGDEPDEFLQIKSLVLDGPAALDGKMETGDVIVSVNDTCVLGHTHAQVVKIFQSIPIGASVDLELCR
# Description: The best hits from in silico screening were subject to screening in a matrix/array competition assay format, i.e., assays where docking of ligands to solid phase PDZ domain in fusion proteins was assessed in the presence and absence of the small molecule competitor as described elsewhere. The compounds were screened for inhibition of the PDZ/PL interactions.
# The small molecules were considered as hits based on the OD450 readout of the assay. The best of the hits in this analysis were then subject to titration binding studies, i.e., titration of compounds in the same competition assay to estimate the IC50 value.
# [6] = system: 3Y1 pBlast-E6-16 cells; assay: cell migration assay (96-well filter plate); assay type: cell-based, rat; details: 40 μM, 24 hours, OD560; compared with 3Y1 pBlast E6-16 ΔPL cells
# Description: The effect of compound 7291-0042 on the rate of cell migration and proliferation was determined on three different cell lines, 3Y1 pBlast, 3Y1 pBlast-E6-16 and 3Y1 pBlast E6-16 ΔPL.
# Plasmid constructs of HPV E6-16 (wild type) and HPV E6-16 ΔPL were generated using the vector pBlast (InvivoGen, Toulouse, France). Recombinant plasmids were generated by recombinant DNA cloning methods known in the art.
# These constructs were transfected into rat 3Y1 primary cells using the LipofectAMINE™ 2000 Reagent (Invitrogen Cat#11668-027) and accompanying protocol. pBlast without insert was transfected as a negative control. Cells were incubated at 37° in RPMI media with non-essential amino acids, 10% FBS, and 1 ug/mL […] until confluent (about 4 days).
# Each of the three transfected cell lines were seeded onto a 96-well filter plate with a feeder tray and lid in RPMI media with a gradient of 0.5% to 10% FBS and non-essential amino acids. Three different treatments were applied to the cell lines. The cells were treated with either 40 μM or 60 μM of the compound 7291-0042, or DMSO. […] The undersides of the filters were left uncoated. […] Cell migration through the membrane was quantified by staining the cells that attach to the lower side of the membrane with a colorometric dye at OD560 after 24 hours with a microplate reader.
# [7] = system: 3Y1 pBlast-E6-16 cells; assay: cell proliferation assay; assay type: cell-based, rat; details: 40 μM; compared with 3Y1 pBlast E6-16 ΔPL and 3Y1 pBlast
# Description: Compound 7291-0042 was further analyzed for its ability to block the development of other cancerous characteristics in cells by a cell proliferation assay. The three cell lines described in the Example 2 were seeded onto a 12-well plate, and allowed to adhere and grow to confluent (about 24 hours) in EMEM media with 10% FBS and non-essential amino acids. 100 μl of compound 7291-0042 at concentrations 0 μM, 20 μM, 40 μM, and 80 μM was applied to the cells. The cells were measured at 24, 48, 72 and 96 hours after addition of the compound.
# [8] = system: SiHa cells; assay: WST-1 cytotoxicity assay, SiHa; assay type: cell-based; details: 60 μM, HPV-positive cervical cancer cell line
# Description: as §1
# [9] = system: HeLa cells; assay: TUNEL apoptosis assay, HeLa; assay type: cell-based; details: 120 M (so in the source), 48 hours, flow cytometry
# Description: (§2) To determine whether the compound 7291-0042 induces apoptosis in HPV-positive cervical cancer cell lines, HeLa cells and the HPV-negative cell line C33A were used. HeLa and C33A cells were seeded at 1-2×10^6 in 10-cm dishes and allowed to adhere and grow to 80-90% confluency. Compound 7291-0042 at a concentration of 60 μM, 80 μM, 100 μM, 120 μM, or DMSO was added to the cells 24 hours after plating and incubated for 48 hours. TUNEL assay was performed for the specific quantitation of apoptotic cells within a cell population using the DeadEnd Fluorometric TUNEL System from Promega (Madison, Wis.). Briefly, the cells were harvested by trypsinization and washed in PBS. Cells were then fixed in 4% formalin and incubated in buffer containing nucleotides and rTdT enzyme for 1 hour at 37° C. After terminating the reaction by adding EDTA, cells were washed with PBS and permeabilized with Triton X-100 and propidium iodide was added to stain all the cells. Cells were then analyzed by flow cytometery. Apoptosis signal was quantified by measuring green fluorescence of fluorescein-12-dUTP at 520±20 nm and red fluorescence of propidium iodide at >620 nm.
# [10] = system: C33a cells; assay: TUNEL apoptosis assay, C33A; assay type: cell-based; details: 120 M (so in the source), 48 hours, flow cytometry
# Description: as §2
structure (smiles),measurement,setting,value
CCc1cccc2c(C(c3ccccc3OCC(=O)O)c3c[nH]c4c(CC)cccc34)c[nH]c12 [7291-0042],"cytotoxicity, HeLa cells",[1],selectively killed
same,amount of E6 onco protein,[2],decreased
same,"cytotoxicity, C33a cells",[3],remained viable
same,amount of p53 tumor suppressor protein,[4],increased
same,specificity of disruption of the interaction between HPV E6 protein and MAGI-1 PDZ1,[5],greatest specificity
same,rate of cell migration,[6],restored baseline cell migration
same,rate of cell proliferation,[7],restored baseline rate of cell proliferation
same,"cytotoxicity, SiHa cells",[8],selectively killed
same,"apoptotic cells, HeLa",[9],20%
same,"apoptotic cells, C33A",[10],4%
